# Measured values as given in patent EP1228058B1, “BENZOPYRANYL GUANIDINE DERIVATIVES, PROCESS FOR PREPARATION THEREOF, AND PHARMACEUTICAL COMPOSITIONS CONTAINING THEM” (Dongbu Hannong Chemical Co., Ltd., priority 1999, dated 2001).
# “And” between values parts separate entries of the source, which are not always exact repeats. Equal entries are not always repeated.
# Tests used:
# [1] = system: ischemic heart models of beagle dogs; experiment: Heart protective (anti-ischemic) activity in ischemic heart models of anesthetized beagle dogs; format: in vivo; conditions: total dose 2 mg/kg infused i.v. over 40 min, 90 min occlusion, 5 h reperfusion
# Experimental: In order to determine whether the compounds of the formula 1 are protective for the ischemic hearts of larger animals, experiments determining the anti-ischemic effects of the compounds on beagle dogs were conducted as follows. The experiments on beagle dogs followed the method of Grover et al.' (G. J. Grover et al., J. Cardiovasc. Pharmacol. 25, 40 (1995)).
# After being anesthetized by an intravenous injection of pentobarbital at a dose of 35 mg/kg, male beagle dogs (8-12 kg) were further infused with pentobarbital sodium at a dose of 3-4 mg/kg through the right cephalic vein throughout the experiments, so as to keep the anesthesia constant. […] The heart rate was measured by a tachometer, such as that manufactured by Gould Inc., OH, U.S.A., identified as Biotachometer. In addition, all of the changes occurring during the experiment were continuously recorded through the Gould 2000 chart recorder, manufactured by Gould Inc.
# The fifth intercostal space was incised to open the thorax and the LAD was separated from its surrounding tissues. […] The LAD part upstream of the silk ligature was isolated from adjacent tissues and the blood flow was measured quantitatively. […] Using polygraph such as Grass Model 7E, the electrocardiogram was measured and read (Lead II). […]
# [2] = system: angiogenesis induced by Angiotensin II in Sprague-Dawley rats; experiment: Suppression of Angiotensin II induced angiogenesis in implanted sponge (99mTc-DTPA clearance); format: in vivo; conditions: AII (100nmol) + test drug, 7 days after injection
# [3] = system: diabetic rats; experiment: Nociceptive test (hot plate test) in diabetic rats; format: in vivo; conditions: 50 °C hot plate
# Experimental: Effects on nociceptive responses of test compounds in rats were examined using hot plate. The same methods were applied for the induction of diabetes and treatment of test compound in rats. Rats were placed onto 50 °C hot plate, then latencies of nociceptive action such as licking were determined. The recovery (%) of nociceptive responses in diabetic rats was calculated according to the following mathematical […]. [Mathematical formula 5] Recovery(%) =(Response in treated group - Response in diabetic control)/(Response in normal control-Response in diabetic control)x100 [formula]
# [4] = system: brain ischemia-reperfusion in Sprague-Dawley rats; experiment: Protection against brain damage induced by brain ischemia-reperfusion
# Experimental: Male Sprague-Dawley rats (350±50 g, SamYook Experimental Animals Co., Korea) were anesthetized by the injection of pentobarbital sodium at a dose of 40 mg/kg, after which the femoral vein and the artery were cannulated with PE-10 while the left carotid artery was exposed. Five min. before the operation, 20 ug/kg of heparin sulfate was injected into the peritoneal cavity. For the continuous measurement of arterial pressure, with a insertion of a blood pressure measuring device into the femoral artery. About 10 ml of blood was taken from the femoral vein to reduce the blood pressure down to 30 mmHg. If the blood pressure is not reduced to less than 100 mmHg with a withdrawal of 7 ml of blood, the rats are considered to have high sympathetic tone.
# While the blood pressure was maintained at 30 mmHg, the exposed left carotid artery was occluded for 20 min by an aneurysm clamp to cause cerebral ischemia. Then, the carotid clamps were removed and the extracted blood was reinfused. To minimize the systemic acidosis, the rats were reinfused with 5 ml of saline containing 0.84% bicarbonate sodium (bicarbonate saline). During operation and restoration period, body temperature was maintained at 37±0.5 °C with the aid of a thermal blanket and incandescent light bulbs. During their restoration from the operation, the body temperature was kept constant for 2 hours or more. […]
# 24 hours after the operation, the rats were sacrificed with a scaffold and the brain was removed rapidly (3 min). […] After photographs were taken of the stained sections, developed and printed, the percentages of the infarcted brain areas to the total brain were measured and analyzed using an image analyzing program (Image-Pro Plus ver. 3.0.1). […]
# The protective effects of the test compounds on the brain damage caused by brain ischemia-reperfusion were expressed as a reduction percentages of infarcted brain areas compared with those of the control group.
SMILES,"Anti-ischemic Activity (in vivo, dogs) (2 mg/kg/40 i.v.) min,i.v.) IZ/AAR (%) [1] [%]",Clearance of ^99mTC (%) ([2]; Dose 0.1 mg/kg (p.o)),Clearance of ^99mTC (%) ([2]; Dose 0.3 mg/kg (p.o)),Clearance of ^99mTC (%) ([2]; Dose 1.0 mg/kg (p.o)),Nociceptive response ([3]; latency of licking) [s],Recovery (%) ([3]; nociceptive responses),"Infarction Area Reduction(%) ([4]; Dose 30 mg/kg, compared with the control group)","Infarction Area Mean±SD(%) ([4]; Dose 30 mg/kg, peritoneally, 30 min before and 2, 4, 16 hours after occlusion)","side effects ([4]; rat, in vivo, 30 mg/kg)"
"COC(OC)[C@@]1(C)Oc2ccc([N+](=O)[O-])cc2[C@H](NC(=NC#N)NCc2ccccc2)[C@H]1O [Example 24, (2S, 3R, 4S)-N''-cyano-N-(6-nitro-3,4-dihydro-3-hydroxy-2-methyl-2-dimethoxymethyl-2H-benzopyran-4-yl)-N'-benzylguanidine]",28.03,26.90,18.22,3.38,–,–,–,–,–
"COC(OC)[C@@]1(C)Oc2ccc(N)cc2[C@@H](NC(=NC#N)NCc2ccccc2)[C@@H]1O [Example 40, (2S, 3S, 4R)-N''-cyano-N-(6 - amino-3,4-dihydro-3-hydroxy-2-methyl-2-dimethoxymethyl-2H-benzopyran-4-yl)-N'-benzylguanidine]",–,–,–,–,4.791,106.5,42.0,23.0% and 23.0 ± 3.3%,did not suffer from any side effects
